# Laboratory results as given in patent US20230085307A1, “PYRIDAZINONE COMPOUND AND HERBICIDE” (NISSAN CHEMICAL CORPORATION, priority 2019, published 2023).
# Tests used:
# [1] = tested on: late watergrass; test: Test Example 1: herbicidal activity, application before weed generation under submerged conditions (Table 16, symbol A); assay type: in vivo, late watergrass (Echinochloa oryzicola); settings: 320 g/ha applied herbicide
# Outline: (§1)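 Emulsion formulation, water-diluted to set dose, was put onto the flooded surface (4 cm depth, alluvial soil) the same day weeds were sown and 2.5-leaf rice transplanted. After 3 weeks at 25-30 °C under glass, each species was rated 0 (≤5% kill) to 5 (≥90% kill).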
# [2] = tested on: Japanese bulrush; test: Test Example 1: herbicidal activity, application before weed generation under submerged conditions (Table 16, symbol B); assay type: in vivo, Japanese bulrush (Schoenoplectus juncoides); settings: 320 g/ha applied herbicide
# Outline: as §1
# [3] = tested on: oval-leafed pondweed; test: Test Example 1: herbicidal activity, application before weed generation under submerged conditions (Table 16, symbol C); assay type: in vivo, oval-leafed pondweed (Monochoria vaginalis); settings: 320 g/ha applied herbicide
# Outline: as §1
# [4] = tested on: barnyard grass; test: Test Example 3: herbicidal effect by foliage application, Wagner pot (Table 18, symbol H); assay type: in vivo, barnyard grass (Echinochloa crus-galli); settings: amount of applied herbicide 320 g/ha
# Outline: (§2)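 Plants were sown in alluvial soil held under 0.1–0.5 cm standing water and grown 14 days in a greenhouse at 25–30 °C. An emulsifiable formulation, water-diluted to the set dose, was then sprayed onto the foliage, and effects were scored three weeks later using previously defined criteria.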
# [5] = tested on: Chinese sprangletop; test: Test Example 3: herbicidal effect by foliage application, Wagner pot (Table 18, symbol D); assay type: in vivo, chinese sprangletop (Leptochloa chinensis); settings: amount of applied herbicide 320 g/ha
# Outline: as §2
# [6] = tested on: rice flat sedge; test: Test Example 3: herbicidal effect by foliage application, Wagner pot (Table 18, symbol E); assay type: in vivo, rice flat sedge (Cyperus iria); settings: amount of applied herbicide 320 g/ha
# Outline: as §2
# [7] = tested on: southern crabgrass; test: Test Example 4: herbicidal effect by soil treatment (Table 19, symbol F); assay type: in vivo, southern crabgrass (Digitaria ciliaris); settings: amount of applied herbicide 320 g/ha
# Outline: (§3)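 Scoring uses the grading scale of an earlier test, three weeks post-application. Treatment consists of spraying a diluted emulsion formulation across the surface of sterilized diluvial soil in which seeds are buried near 1.5 cm deep; boxes are kept in a greenhouse between 25° C. and 30° C.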
# [8] = tested on: green foxtail; test: Test Example 4: herbicidal effect by soil treatment (Table 19, symbol G); assay type: in vivo, green foxtail (Setaria viridis); settings: amount of applied herbicide 320 g/ha
# Outline: as §3
# [9] = tested on: barnyard grass; test: Test Example 4: herbicidal effect by soil treatment (Table 19, symbol H); assay type: in vivo, barnyard grass (Echinochloa crus-galli); settings: amount of applied herbicide 320 g/ha
# Outline: as §3
# [10] = tested on: wild oat; test: Test Example 4: herbicidal effect by soil treatment (Table 19, symbol I); assay type: in vivo, wild oat (Avena fatua); settings: amount of applied herbicide 320 g/ha
# Outline: as §3
# [11] = tested on: Italian ryegrass; test: Test Example 4: herbicidal effect by soil treatment (Table 19, symbol K); assay type: in vivo, Italian ryegrass (Lolium multiflorum); settings: amount of applied herbicide 320 g/ha
# Outline: as §3
# [12] = tested on: windgrass; test: Test Example 4: herbicidal effect by soil treatment (Table 19, symbol L); assay type: in vivo, windgrass (Apera spica-venti); settings: amount of applied herbicide 320 g/ha
# Outline: as §3
# [13] = tested on: velvetleaf; test: Test Example 4: herbicidal effect by soil treatment (Table 19, symbol M); assay type: in vivo, velvetleaf (Abutilon theophrasti); settings: amount of applied herbicide 320 g/ha
# Outline: as §3
# [14] = tested on: redroot pigweed; test: Test Example 4: herbicidal effect by soil treatment (Table 19, symbol N); assay type: in vivo, redroot pigweed (Amaranthus retroflexus); settings: amount of applied herbicide 320 g/ha
# Outline: as §3
# [15] = tested on: lambsquarters; test: Test Example 4: herbicidal effect by soil treatment (Table 19, symbol O); assay type: in vivo, lambsquarters (Chenopodium album); settings: amount of applied herbicide 320 g/ha
# Outline: as §3
# [16] = tested on: chickweed; test: Test Example 4: herbicidal effect by soil treatment (Table 19, symbol P); assay type: in vivo, common chickweed (Stellaria media); settings: amount of applied herbicide 320 g/ha
# Outline: as §3
# [17] = tested on: persian speedwell; test: Test Example 4: herbicidal effect by soil treatment (Table 19, symbol R); assay type: in vivo, Persian speedwell (Veronica persica); settings: amount of applied herbicide 320 g/ha
# Outline: as §3
# [18] = tested on: southern crabgrass; test: Test Example 5: herbicidal effect by foliage application, plastic box (Table 20, symbol F); assay type: in vivo, southern crabgrass (Digitaria ciliaris); settings: foliage application, 320 g/ha, evaluated three weeks after application
# Outline: (§4)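 Post-emergence foliar test in sterilized diluvial soil. Compound applied as water-diluted emulsion at a predetermined rate to 14-day-old plants; evaluation at three weeks.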
# [19] = tested on: green foxtail; test: Test Example 5: herbicidal effect by foliage application, plastic box (Table 20, symbol G); assay type: in vivo, green foxtail (Setaria viridis); settings: foliage application, 320 g/ha, evaluated three weeks after application
# Outline: as §4
# [20] = tested on: barnyard grass; test: Test Example 5: herbicidal effect by foliage application, plastic box (Table 20, symbol H); assay type: in vivo, barnyard grass (Echinochloa crus-galli); settings: foliage application, 320 g/ha, evaluated three weeks after application
# Outline: as §4
# [21] = tested on: wild oat; test: Test Example 5: herbicidal effect by foliage application, plastic box (Table 20, symbol I); assay type: in vivo, wild oat (Avena fatua); settings: foliage application, 320 g/ha, evaluated three weeks after application
# Outline: as §4
# [22] = tested on: blackgrass; test: Test Example 5: herbicidal effect by foliage application, plastic box (Table 20, symbol J); assay type: in vivo, blackgrass (Alopecurus myosuroides); settings: foliage application, 320 g/ha, evaluated three weeks after application
# Outline: as §4
# [23] = tested on: Italian ryegrass; test: Test Example 5: herbicidal effect by foliage application, plastic box (Table 20, symbol K); assay type: in vivo, Italian ryegrass (Lolium multiflorum); settings: foliage application, 320 g/ha, evaluated three weeks after application
# Outline: as §4
# [24] = tested on: windgrass; test: Test Example 5: herbicidal effect by foliage application, plastic box (Table 20, symbol L); assay type: in vivo, windgrass (Apera spica-venti); settings: foliage application, 320 g/ha, evaluated three weeks after application
# Outline: as §4
# [25] = tested on: velvetleaf; test: Test Example 5: herbicidal effect by foliage application, plastic box (Table 20, symbol M); assay type: in vivo, velvetleaf (Abutilon theophrasti); settings: foliage application, 320 g/ha, evaluated three weeks after application
# Outline: as §4
# [26] = tested on: redroot pigweed; test: Test Example 5: herbicidal effect by foliage application, plastic box (Table 20, symbol N); assay type: in vivo, redroot pigweed (Amaranthus retroflexus); settings: foliage application, 320 g/ha, evaluated three weeks after application
# Outline: as §4
# [27] = tested on: lambsquarters; test: Test Example 5: herbicidal effect by foliage application, plastic box (Table 20, symbol O); assay type: in vivo, lambsquarters (Chenopodium album); settings: foliage application, 320 g/ha, evaluated three weeks after application
# Outline: as §4
# [28] = tested on: chickweed; test: Test Example 5: herbicidal effect by foliage application, plastic box (Table 20, symbol P); assay type: in vivo, common chickweed (Stellaria media); settings: foliage application, 320 g/ha, evaluated three weeks after application
# Outline: as §4
# [29] = tested on: persian speedwell; test: Test Example 5: herbicidal effect by foliage application, plastic box (Table 20, symbol R); assay type: in vivo, Persian speedwell (Veronica persica); settings: foliage application, 320 g/ha, evaluated three weeks after application
# Outline: as §4
smiles,measurement,setting,value
CCCC(=O)Oc1c(C)nn(C)c(=O)c1-c1c(-c2cccc(OC(F)(F)F)c2)sc2ccc(F)cc12 [2-237],Herbicidal effect on A: late watergrass (grade 0-5),[1],3 (Herbicidal rate of 40% or more and less than 70%)
same,Herbicidal effect on B: Japanese bulrush (grade 0-5),[2],0 (Herbicidal rate of 5% or less (almost no effect))
same,Herbicidal effect on C: oval-leafed pondweed (grade 0-5),[3],0 (Herbicidal rate of 5% or less (almost no effect))
same,herbicidal effect on H: barnyard grass,[4],3 (Herbicidal rate of 40% or more and less than 70%)
same,herbicidal effect on D: Chinese sprangletop,[5],4 (Herbicidal rate of 70% or more and less than 90%)
same,herbicidal effect on E: rice flat sedge,[6],5 (Herbicidal rate of 90% or more (almost completely withered))
same,herbicidal effect on F: southern crabgrass,[7],0 (Herbicidal rate of 5% or less (almost no effect))
same,herbicidal effect on G: green foxtail,[8],0 (Herbicidal rate of 5% or less (almost no effect))
same,herbicidal effect on H: barnyard grass,[9],0 (Herbicidal rate of 5% or less (almost no effect))
same,herbicidal effect on I: wild oat,[10],0 (Herbicidal rate of 5% or less (almost no effect))
same,herbicidal effect on K: Italian ryegrass,[11],0 (Herbicidal rate of 5% or less (almost no effect))
same,herbicidal effect on L: windgrass,[12],0 (Herbicidal rate of 5% or less (almost no effect))
same,herbicidal effect on M: velvetleaf,[13],0 (Herbicidal rate of 5% or less (almost no effect))
same,herbicidal effect on N: redroot pigweed,[14],0 (Herbicidal rate of 5% or less (almost no effect))
same,herbicidal effect on O: lambsquarters,[15],0 (Herbicidal rate of 5% or less (almost no effect))
same,herbicidal effect on P: chickweed,[16],5 (Herbicidal rate of 90% or more (almost completely withered))
same,herbicidal effect on R: persian speedwell,[17],0 (Herbicidal rate of 5% or less (almost no effect))
same,herbicidal effect on F: southern crabgrass (criteria 0-5),[18],0 (Herbicidal rate of 5% or less (almost no effect))
same,herbicidal effect on G: green foxtail (criteria 0-5),[19],0 (Herbicidal rate of 5% or less (almost no effect))
same,herbicidal effect on H: barnyard grass (criteria 0-5),[20],0 (Herbicidal rate of 5% or less (almost no effect))
same,herbicidal effect on I: wild oat (criteria 0-5),[21],0 (Herbicidal rate of 5% or less (almost no effect))
same,herbicidal effect on J: blackgrass (criteria 0-5),[22],0 (Herbicidal rate of 5% or less (almost no effect))
same,herbicidal effect on K: Italian ryegrass (criteria 0-5),[23],0 (Herbicidal rate of 5% or less (almost no effect))
same,herbicidal effect on L: windgrass (criteria 0-5),[24],0 (Herbicidal rate of 5% or less (almost no effect))
same,herbicidal effect on M: velvetleaf (criteria 0-5),[25],3 (Herbicidal rate of 40% or more and less than 70%)
same,herbicidal effect on N: redroot pigweed (criteria 0-5),[26],5 (Herbicidal rate of 90% or more (almost completely withered))
same,herbicidal effect on O: lambsquarters (criteria 0-5),[27],2 (Herbicidal rate of 20% or more and less than 40%)
same,herbicidal effect on P: chickweed (criteria 0-5),[28],5 (Herbicidal rate of 90% or more (almost completely withered))
same,herbicidal effect on R: persian speedwell (criteria 0-5),[29],3 (Herbicidal rate of 40% or more and less than 70%)
